Data published in US20250197387A1, “BCL-XL DEGRADERS AND USES THEREOF” (Kymera Therapeutics, Inc., priority 2021, published 2025).
Like-named read-outs stand apart in the source and are kept apart here.

How the values were obtained:
Assay type in all cases: cell-based
[1] = test system: MOLT-4 cells; assay: CTG (CellTiter-Glo) cell viability assay, MOLT-4; conditions: Homo sapiens, 3 day incubation, read-out: CTG Cell Viability Assay - MOLT-4 3 day: Average external-IC50
Outline: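 Luminescence from CellTiter-Glo, read after 3 days of compound exposure at 37 °C, gave viability; IC50 values came from three-parameter logistic curves. Cells were plated at 10,000 per well and dosed over nine 1:3 steps topping at 10 μM.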

[2] = test system: Caki-2 cells; assay: CTG (CellTiter-Glo) cell viability assay, Caki-2; conditions: Homo sapiens, 72 h, 3 day incubation, read-out: CTG Chempartner - Caki-2 3 day: Average external-IC50
Description: Compound-mediated viability effect on MOLT-4 and Caki-2 was quantitatively determined using the CellTiter-Glo® Luminescent Cell Viability Assay kit from Promega (Catalog number G7570) following manufacturer's recommended procedures. Briefly, MOLT-4 and Caki-2 cells were seeded into 384 well plates (Grenier Bio-One, Catalog number 781080) with a density of 10,000 cells per well. Compounds were then added to the assay plate with final top concentration of 10 μM and 1:3 dilution series with total of 9 doses. The final DMSO concentration is normalized to 0.2%. The assay plates were incubated at 37° C., for 3 days under 5% CO2. Then the assay plate was equilibrated at room temperature for 10 minutes. To determine cell viability, 30 uL CellTiter Glo reagent was added to each well and the assay plate was centrifuged at 1000 rpm for 30 second, incubated at room temperature for 10 min, and analyzed by detecting the luminescence using a multimode plate reader (EnVision 2105, PerkinElmer). The data was then analyzed by software Prism 7.0 from GraphPad and the dose response curves are fit using a three-parameter logistic equation to calculate IC50.
The letter codes for MOLT-4 IC50 include: A (<0.1 μM); B (0.1-1.0 μM); C (>1.0-3.0 μM); and D (>3.0 μM). The letter codes for Caki-2 IC50 include: A (<0.1 μM); B (0.1-1.0 μM); C (>1.0-10.0 μM); and D (>10.0 μM).

[3] = target: T1, BCL-XL (Homo sapiens, UniProt Q07817); assay: BCL-XL degradation assay, western blot in MOLT-4 cells, 16 h; conditions: for DC50: read-out: Bcl-xL WB in MOLT-4 degradation 16 h: Mean external-Abs DC50
T1 construct: endogenous in cells; host or cells: MOLT-4
Outline: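 MOLT-4 cells treated with compounds at 0.02-10 μM final for 16 hr at 37° C; lysates analysed by western blot with anti-BCL-xL, beta-actin and GAPDH loading controls, infrared imaging and densitometry; DC50 and Dmax % reported as letter codes.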

[4] = target: T1, BCL-XL; assay: Bcl-xL ELISA degradation in MOLT-4 cells, 6 h; conditions: for DC50: read-out: Bcl-xL ELISA in MOLT-4 degradation 6 h: Mean external-Abs DC50
Description: The letter codes for BCL-XL DC50 include: A (<0.01 μM); B (0.01-0.1 μM); C (>[…]); D (>0.5-1.0 μM); and E (>1.0 μM). The letter codes for Dmax % include A (>75%); B (50 to 75%); C (<50%).

[5] = western blot, MOLT-4 cells, 16 h, read-out: Bcl-xL WB in MOLT-4 degradation 16 h: Average Dmax %
[6] = western blot, MOLT-4 cells, 16 h

T1 sequence (Q07817 whole entry): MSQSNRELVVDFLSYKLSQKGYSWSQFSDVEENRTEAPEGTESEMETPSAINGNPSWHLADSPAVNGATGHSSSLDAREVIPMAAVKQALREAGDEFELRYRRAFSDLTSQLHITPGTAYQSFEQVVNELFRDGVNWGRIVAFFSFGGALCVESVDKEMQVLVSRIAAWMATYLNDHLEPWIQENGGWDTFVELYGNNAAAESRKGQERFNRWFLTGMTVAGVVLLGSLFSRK

Structure (SMILES)	IC50 ([1]; MOLT-4, 72 h)	IC50 [2]	Dmax [3, 5]	DC50 [3, 6]	Dmax [4]	DC50 [4]	Dmax ([3]; MOLT-4, read-out: Bcl-xL WB in MOLT-4 degradation 16 h: Average Dmax %)	IC50 ([1]; 72 h)
Cc1cc(N(C)c2ccc(-c3cnn(CC45CC6CC(CC(C6)C4)C5)c3C)c(C(=O)NS(=O)(=O)CCNCCC(=O)N[C@H](C(=O)N3C[C@H](O)C[C@H]3C(=O)N[C@@H](C)c3ccc(-c4scnc4C)cc3)C(C)(C)C)n2)nnc1Nc1nc2ccccc2s1 [I-427]	100 to 1000 nM	> 10000 nM	–	–	–	–	–	–
Cc1ncsc1-c1ccc([C@H](C)NC(=O)[C@@H]2C[C@@H](O)CN2C(=O)[C@@H](NC(=O)CCCCCCCC(=O)N(C)CC#Cc2cccc(F)c2OCCCc2sc(N3CCc4cccc(C(=O)Nc5nc6ccccc6s5)c4C3)nc2C(=O)O)C(C)(C)C)cc1 [I-17]	–	> 10000 nM	> 75%	10 to 100 nM	–	–	–	–
Cc1cc(N(C)c2ccc(-c3cnn(CC45CC6CC(CC(C6)C4)C5)c3C)c(C(=O)NS(=O)(=O)CCCN(C)CC(=O)N[C@H](C(=O)N3C[C@H](O)C[C@H]3C(=O)N[C@@H](C)c3ccc(-c4scnc4C)cc3)C(C)(C)C)n2)nnc1Nc1nc2cccnc2s1 [I-448]	100 to 1000 nM	> 10000 nM	–	–	–	–	–	–
C#Cc1ccc([C@H](C)NC(=O)[C@@H]2C[C@@H](O)CN2C(=O)[C@@H](NC(=O)CCCCCS(=O)(=O)NC(=O)c2nc(N3CCc4cccc(C(=O)Nc5nc6cccnc6s5)c4C3)ccc2-c2cnn(CC(C)(C)C)c2C)C(C)(C)C)cc1 [I-469]	100 to 1000 nM	> 10000 nM	–	–	–	–	–	–
Cc1ncsc1-c1ccc([C@H](C)NC(=O)[C@@H]2C[C@@H](O)CN2C(=O)[C@@H](NC(=O)CCCCCS(=O)(=O)NC(=O)c2nc(N3CCc4cccc(C(=O)Nc5nc6ccccc6s5)c4C3)ccc2-c2cnn(CC3CCCCC3)c2C)C(C)(C)C)cc1 [I-118]	–	> 10000 nM	> 75%	< 10 nM	> 75%	< 10 nM	–	–
Cc1cc(N(C)c2ccc(-c3cnn(CC45CC6CC(CC(C6)C4)C5)c3C)c(C(=O)NS(=O)(=O)CCCCCC(=O)N[C@H](C(=O)N3C[C@H](O)C[C@H]3C(=O)N[C@@H](C)c3ccc(-c4scnc4C)cc3)C(C)(C)C)n2)nnc1Nc1nc2cccnc2s1 [I-439]	100 to 1000 nM	> 10000 nM	–	–	–	–	–	–
Cc1ncsc1-c1ccc([C@H](C)NC(=O)[C@@H]2C[C@@H](O)CN2C(=O)[C@@H](NC(=O)C2CCN(c3ccc(S(=O)(=O)NC(=O)c4nc(N5CCc6cccc(C(=O)Nc7nc8ccccc8s7)c6C5)ccc4-c4cccc5c4cnn5C(C)C)cc3)CC2)C(C)(C)C)cc1 [I-297]	–	1000 to 10000 nM	–	–	< 50%	500 to 1000 nM	–	–
Cc1ncsc1-c1ccc([C@H](C)NC(=O)[C@@H]2C[C@@H](O)CN2C(=O)[C@@H](NC(=O)CCCCCS(=O)(=O)NC(=O)c2nc(N3CCc4cccc(C(=O)NCc5cnco5)c4C3)ccc2-c2cnn(CC3CCCCC3)c2C)C(C)(C)C)cc1 [I-461]	100 to 1000 nM	> 10000 nM	–	–	–	–	–	–
Cc1ncsc1-c1ccc([C@H](C)NC(=O)[C@@H]2C[C@@H](O)CN2C(=O)[C@@H](NC(=O)CCCCCC(=O)NCCOc2ccc(C(=O)Nc3nc4ccccc4s3)c3c2CCN(c2ccc(-c4cnn(CC5CCCCC5)c4C)c(C(=O)O)n2)C3)C(C)(C)C)cc1 [I-44]	–	> 10000 nM	> 75%	100 to 500 nM	–	–	–	–
C#Cc1ccc(CNC(=O)[C@@H]2C[C@@H](O)CN2C(=O)[C@@H](NC(=O)CCCCCS(=O)(=O)NC(=O)c2nc(N3CCc4cccc(C(=O)Nc5nc6cccnc6s5)c4C3)ccc2-c2cnn(CC(C)(C)C)c2C)C(C)(C)C)cc1 [I-468]	1000 to 3000 nM	> 10000 nM	–	–	–	–	–	–
Cc1ncsc1-c1ccc([C@H](C)NC(=O)[C@@H]2C[C@@H](O)CN2C(=O)[C@@H](NC(=O)CCCCCC(=O)N(C)CC#Cc2cccc(F)c2OCCCc2sc(N3CCc4cccc(C(=O)Nc5nc6ccccc6s5)c4C3)nc2C(=O)O)C(C)(C)C)cc1 [I-16]	–	> 10000 nM	> 75%	100 to 500 nM	–	–	–	–
C#Cc1ccc([C@H](C)NC(=O)[C@@H]2C[C@@H](O)CN2C(=O)[C@@H](NC(=O)CCCCCS(=O)(=O)NC(=O)c2nc(N3CCc4cccc(C(=O)Nc5nc6ccccc6s5)c4C3)ccc2-c2cnn(CC(C)(C)C)c2C)C(C)(C)C)cc1 [I-470]	< 100 nM	> 10000 nM	–	–	–	–	–	–
Cc1ncsc1-c1ccc(CNC(=O)[C@@H]2C[C@@H](O)CN2C(=O)[C@@H](NC(=O)C2(F)CC2)C(C)(C)C)c(OCC(=O)N2CCN(CC[C@H](CSc3ccccc3)Nc3ccc(S(=O)(=O)NC(=O)c4ccc(N5CCN(CC6=C(c7ccc(Cl)cc7)CCC(C)(C)C6)CC5)cc4)cc3S(=O)(=O)C(F)(F)F)CC2)c1 [I-387]	–	> 10000 nM	> 75%	10 to 100 nM	–	–	–	–
Cc1ncsc1-c1ccc(CNC(=O)[C@@H]2C[C@@H](O)CN2C(=O)[C@@H](NC(=O)C2(F)CC2)C(C)(C)C)c(OCCCN(C)CC[C@H](CSc2ccccc2)Nc2ccc(S(=O)(=O)NC(=O)c3ccc(N4CCN(CC5=C(c6ccc(Cl)cc6)CCC(C)(C)C5)CC4)cc3)cc2S(=O)(=O)C(F)(F)F)c1 [I-184]	100 to 1000 nM	–	> 75%	10 to 100 nM	50 to 75%	100 to 500 nM	–	–
Cc1ncsc1-c1ccc(CNC(=O)[C@@H]2C[C@@H](O)CN2C(=O)[C@@H](NC(=O)C2(F)CC2)C(C)(C)C)c(OCCN2CCC(CS(=O)(=O)NC(=O)c3nc(N4CCc5cccc(C(=O)Nc6nc7ccccc7s6)c5C4)ccc3-c3cnn(CC4CCCCC4)c3C)CC2)c1 [I-189]	100 to 1000 nM	–	> 75%	10 to 100 nM	50 to 75%	10 to 100 nM	–	–
Cc1ncsc1-c1ccc([C@H](C)NC(=O)[C@@H]2C[C@@H](O)CN2C(=O)[C@@H](NC(=O)CCCCCCN(C)C(=O)c2nc(N3CCc4cccc(C(=O)Nc5nc6ccccc6s5)c4C3)ccc2-c2cnn(CC3CCCCC3)c2C)C(C)(C)C)cc1 [I-185]	100 to 1000 nM	–	> 75%	10 to 100 nM	50 to 75%	10 to 100 nM	–	–
Cc1ncsc1-c1ccc([C@H](C)NC(=O)[C@@H]2C[C@@H](O)CN2C(=O)[C@@H](NC(=O)CCCC(=O)N(C)CC#Cc2cccc(F)c2OCCCc2sc(N3CCc4cccc(C(=O)Nc5nc6ccccc6s5)c4C3)nc2C(=O)O)C(C)(C)C)cc1 [I-15]	–	> 10000 nM	50 to 75%	500 to 1000 nM	–	–	–	–
Cc1ncsc1-c1ccc([C@H](C)NC(=O)[C@@H]2C[C@@H](O)CN2C(=O)[C@@H](NC(=O)CN2CC(N3CCC(NC(=O)c4nc(N5CCc6cccc(C(=O)Nc7nc8ccccc8s7)c6C5)ccc4-c4cnn(CC5CCCCC5)c4C)CC3)C2)C(C)(C)C)cc1 [I-176]	–	–	–	10 to 100 nM	50 to 75%	100 to 500 nM	> 75%	100 to 1000 nM
Cc1cc([C@H](C(=O)N2C[C@H](O)C[C@H]2C(=O)NCc2ccc(-c3scnc3C)cc2OCCCCCCNC(=O)c2nc(N3CCc4cccc(C(=O)Nc5nc6ccccc6s5)c4C3)ccc2-c2cnn(CC3CCCCC3)c2C)C(C)C)on1 [I-197]	100 to 1000 nM	–	> 75%	10 to 100 nM	< 50%	> 1000 nM	–	–
